Entries after “also recorded” stand apart in the source; their conditions may differ. One block for each molecule: values may come before it.
Legend:
[1] = system: BCR-ABL^+LSC (Kit^+Sca1^+Lin^−GFP^+); assay: Apoptosis of BCR-ABL+ LSCs treated ex vivo (annexin V, flow cytometry); format: cell-based, mouse
Procedure: Apoptosis. Apoptosis of LSCs was performed using annexin V as described below in Supplementary Information and Methods.
Apoptosis. The LSCs were diluted in DMEM, resuspended using a 16-gauge needle, and collected by centrifugation. 1×10^5 cells were resuspended in 200 μl of binding buffer (0.1 M HEPES with 1.4 M NaCl, 25 mM CaCl2, pH 7.4). Annexin V FITC (BD Biosciences) was incubated with cells for 15 min on ice followed by flow cytometric analysis.
The ability of CyPGs derived from arachidonic acid (2 series PGs) to induce apoptosis was tested in cultures of LSCs from FV infected mice and in the murine CML model. […] 15d-PGJ2 is known as a PPAPγ agonist. […] In FIG. 7C Δ^12-PGJ3, 15d-PGJ2 or 9,10-dihydro-15d-PGJ2 are tested for their ability to induce apoptosis in a murine CML model. […] The cells were stained with annexin V-FITC and analyzed by flow cytometry. Representative of N=4. […] Inset: Effect of rosiglitazone on the apoptosis of LSC. Rosiglitazone (0.1-2.0 μM) was incubated with LSC in the culture media for 36 h as described earlier and the cells were subjected to annexin-V staining followed by flow cytometry. […] LSC were treated ex vivo with indicated concentrations of each compound for 36 h.
(§1) Following 36 h of incubation, apoptotic cells were quantified by annexin V staining. […] In a related study to address if Δ^12-PGJ3 treatment would cause any degranulation of granulocytes, a rat basophilic cell line ([…]) was treated with 100 nM Δ^12-PGJ3 and the degranulation was followed by quantitating the release of histamine and a second marker of degranulation, hexoseaminidase.
In this experiment, 500,000 BCR-ABL+ LSCs were plated in a 24-well plate followed and were treated with 25 nM PGD2Me or 100 nM ZK118182 (both are agonists of DP) for 24 h. GFP^+ cells were analyzed by flow cytometry. These agonists were purchased from Cayman Chemicals, MI.

[2] = system: primary human AML cells; LSCs (CD34+CD38−CD123+); assay: Apoptosis of primary human AML cells and AML LSCs (annexin V); format: cell-based; conditions: CAY10471 10 nM pretreatment, then Δ^12-PGJ3 100 nM
Procedure: In this experiment, 110,000/well primary AML cells were cultured in above specified media for 6 and 12 hrs. Cells were collected and washed once with ice cold PBS. The cells were resuspended in 200 ul 1× Apoptosis buffer with annexin-V PE to all tubes. The cells were washed in PBS and resuspended in 600 ul PBS and transfer into flow tubes and analyzed for apoptosis (Annexin V+ cells) on FC-500. […] In this experiment, 110,000/well AML cells were cultured in earlier mentioned media for 6 and 12 hrs. Cells were collected and washed once in PBS and resuspended in 200 ul PBS and blocked with FC receptor antibody 10 mins RT. The following antibodies were added: CD38, CD123, CD34, CD117 (BD bioscience) for 1 hr on ice. Cells were washed in PBS once and resuspended in 200 ul of apoptotic buffer, and annexin V was added and incubated for 15 mins. Apoptotic cells (Annexin V+ cells) were counted by flow cytometry. […] Cells were collected and washed once in PBS and resuspended in 200 ul PBS and blocked with FC receptor antibody 10 mins RT. The following antibodies were added: CD38, CD123, CD34 (BD bioscience) for 1 hr on ice. Cells were washed in PBS once and resuspended in 200 ul of apoptotic buffer, and annexin V was added and incubated for 15 mins. Apoptotic cells (Annexin V+ cells) were counted by flow cytometry.
Referring to the results shown in FIG. 16, these experiments were performed with primary AML stem cells isolated from a patient. […] In an identical experiment, the cells were also treated with a synthetic DP agonist, ZK118182 (100 nM). Apoptosis of cells (by annexin V staining) was measured using flow cytometry.

[3] = system: normal HSCs (MSCV-GFP^+HSC); assay: Effect on normal HSCs (MSCV-GFP+ HSC) treated ex vivo; conditions: antagonists/inhibitor 10 nM; Δ^12-PGJ3 25 nM; 36 h
[4] = system: Human unfractionated bone marrow cells; assay: Colony formation of normal human bone marrow cells in methylcellulose; conditions: methylcellulose with multiple growth factors, 12 days
Procedure: Human unfractionated bone marrow cells (5×10^5 per well) were plated in methylcellulose complete media containing IL-3, GM-CSF, G-CSF, SCF and Epo supplemented with the indicated concentrations of drugs. Total colonies were counted after 12 days.

[5] = system: rat basophilic cell line (RBL-23); assay: Degranulation of basophilic cells (histamine and hexoseaminidase release); conditions: Δ^12-PGJ3 100 nM
Procedure: as §1

[6] = system: FV-LSCs (M34^+Kit^+Sca1^+); assay: Apoptosis of FV-LSCs treated ex vivo (annexin V, flow cytometry); format: cell-based, mouse; conditions: 25 nM, 36 h, annexin V
Procedure: On day 14 after infection, spleens were isolated and a single cell suspension of spleen cells was generated. The cells were filtered through a 70 μm sterile filter and flow-through cells were resuspended in RBC lysis buffer followed by centrifugation. Leukemia stem cells were isolated by FACS. Spleen cells were labeled with anti-Kit, Sca1 (BioLegend, San Diego, Calif.) and M34 antibodies. […] As indicated M34^+Kit^+Sca1^+ cells were cultured in Methocult media (Stem Cell Technologies Vancouver BC) M3334 supplemented with 200 ng/ml Sonic Hedgehog (Shh), 15 ng/ml bone morphogenetic protein-4 (BMP4) (both from R&D Systems Minneapolis, Minn.), and 50 ng/ml stem cell factor (SCF; Peprotech).
The cells were stained with annexin V-FITC and analyzed by flow cytometry. […] Means±s.e.m. *P<0.001 compared to vehicle (PBS). […] Inset: Effect of rosiglitazone on the apoptosis of LSC. Rosiglitazone (0.1-2.0 μM) was incubated with LSC in the culture media for 36 h as described earlier and the cells were subjected to annexin-V staining followed by flow cytometry. […] LSC were treated ex vivo with indicated concentrations of each compound for 36 h. Mean±s.e.m. shown *P<0.001.

[7] = system: Friend virus (FV)-induced erythroleukemia; assay: FV-induced erythroleukemia in FV-infected mice, intraperitoneal treatment; format: in vivo, mouse
From the text: FV-induced erythroleukemia and production of FV leukemia stem cells (FV-LSCs): BALB/c mice were infected with FV as previously described (Subramanian A et al., J Virol. 2008; 82:382-393; Harandi O F et al., J Clin Invest. 2010; 120:4507-4519). On day 14 after infection, spleens were isolated and a single cell suspension of spleen cells was generated. The cells were filtered through a 70 μm sterile filter and flow-through cells were resuspended in RBC lysis buffer followed by centrifugation. Leukemia stem cells were isolated by FACS. Spleen cells were labeled with anti-Kit, Sca1 (BioLegend, San Diego, Calif.) and M34 antibodies. M34 is a monoclonal antibody that recognizes the envelope protein of SFFV (Chesebro B et al., Virology. 1981; 112:131-144) and was used as previously described (Subramanian A et al., J Virol. 2008; 82:382-393). As indicated M34^+Kit^+Sca1^+ cells were cultured in Methocult media (Stem Cell Technologies Vancouver BC) M3334 supplemented with 200 ng/ml Sonic Hedgehog (Shh), 15 ng/ml bone morphogenetic protein-4 (BMP4) (both from R&D Systems Minneapolis, Minn.), and 50 ng/ml stem cell factor (SCF; Peprotech). For CFU-FV assays, cells were plated in methylcellulose media containing fetal calf serum, but lacking added growth factors as previously described (Mager D L et al., Proc Natl Acad Sci USA. 1981; 78:1703-1707).
Complete blood counts of mice treated with Δ^12-PGJ3 (0.05 mg/kg) were examined. There is no difference in treated mice and untransplanted control mice in terms of white blood cell counts, red blood cell counts or platelet counts. Changes in hematological parameters in FV-infected mice upon treatment with CyPGs were examined. FV-infected Balb/c mice were treated with Δ^12-PGJ3 (0.05 mg/kg) intraperitoneally for 7 d following which the mice were sacrificed and hematological parameters were analyzed on an Advia blood analyzer. FV-infected Δ^12-PGJ3 treated mice were compared to infected vehicle controls. N=5 per group, all data are means±s.e.m. *P<0.05. 3% w/v hydroxypropyl-3-cyclodextrin was used as a vehicle in in vivo experiments. Spleen sizes of FV-infected mice that were treated with either vehicle, 9,10-dihydro-15d-PGJ2 (0.05 mg/kg), or 15d-PGJ2 (0.05 mg/kg) were examined; N=3 pre group. Hematological parameters of Balb/c uninfected, infected, and 15d-PGJ2 treated mice were examined. N=5 per group. All data were means±s.e.m. *P<0.05.
FV-LSC were targeted by 15d-PGJ2 in the spleen of FV-infected mice. FV-infected mice were treated with 15d-PGJ2 or 9,10-dihydro-15d-PGJ2 at 0.05 mg/kg for 7 d. The splenic LSC (M34^+Sca1^+Kit^+) cells were analyzed by flow cytometry on day 14 post infection. […] Uninfected and infected vehicle controls were used for comparison. N=3; *P<0.05. […] The colonies were counted 10-14 days after plating. N=3 mice per group, *p<0.05.

[8] = system: p53; assay: p53 expression in FV-LSCs treated ex vivo (RT-PCR, nuclear extracts); format: cell-based, mouse
[9] = system: p53; assay: p53 expression in BCR-ABL+ LSCs treated ex vivo; format: cell-based, mouse
[10] = system: FV-LSCs transplanted into BALB/c-Stk^−/− mice
Procedure: Transplant of FV-LSCs into BALB/c-Stk^−/− mice: FV-LSCs were generated as described above. 2.5×10^5 FV-LSCs were transplanted into BALB/c-Stk^−/− mice by retro-orbital injection. Six weeks after transplant the mice were treated with CyPGs or vehicle control as indicated in the text.
Treatment of Mice with PGs: Mice with FV-induced erythroleukemia or MIGR-BCR-ABL induced CML were treated on the indicated days with CyPGs. Mice were treated with a daily intraperitoneal injection of Δ^12-PGJ3 (0.01-0.1 mg/kg), 15d-PGJ2 (0.1 mg/kg), or 9,10-dihydro-15d-PGJ2 (0.1 mg/kg) for 7 days. All three compounds were formulated with hydroxypropyl-β-cyclodextrin (30% w/v; Sigma; vehicle control).
Stk^−/− mice are resistant to Friend virus infection so the leukemia developed by the transplanted mice is result of the transplanted LSCs and not FV infection. […] LSCs sorted from the spleens of FV-infected mice were transplanted into Stk^−/− mice (on a Balb/c background). After 6 weeks such mice were treated daily for 1 week with vehicle (hydroxypropyl-β-cyclodextrin), 15d-PGJ2 (0.05 mg/kg), or 9,10-dihydro-15d-PGJ2 (0.05 mg/kg) by intraperitoneal injection. The mice were sacrificed 51 days post LSC transplantation for analysis. An analysis of spleens of mice comparing splenomegaly in vehicle, 15d-PGJ2, or 9,10-dihydro-15d-PGJ2 treated transplanted mice was performed. Spleen weight compared to control (untransplanted mice) after treatment and WBC counts in the peripheral blood of the mice after treatment were examined, and a flow cytometric analysis of the spleen of untransplanted and LSC transplanted mice after treatment was performed. All data were mean±s.e.m. *p<0.05 compared to control or 9,10-dihydro-15d-PGJ2 treated groups. N=5 per group.

SMILES: CN(C1CCc2c(c3ccccc3n2CC(=O)O)C1)S(=O)(=O)c1ccc(F)cc1 (stereo not shown) [CAY10471, reference compound]
inhibition of Δ^12-PGJ3-induced apoptosis by DP antagonist ([1]; antagonist 10 nM, 2 h pretreatment, then 25 nM Δ^12-PGJ3, 36 h): inhibited
block of Δ^12-PGJ3-induced apoptosis of LSCs [2]: completely blocked the apoptosis
viability of MSCV-HSC control cells [3]: not affected

total colonies of human bone marrow cells [4]: had no effect
SMILES: CC(C)OC(=O)COCC=CCC1C(Cl)CC(O)C1C=CC(O)C1CCCCC1 (stereo not drawn) [ZK118182, [[4-[5R-chloro-2Z-[3R-cyclohexyl-3 S-hydroxy-1R-propenyl]-3 S-hydroxycyclopentyl]-2R-butenyl]oxy]-acetic acid, isopropyl ester]
apoptosis of BCR-ABL+ LSCs by synthetic DP agonists (GFP+ cells) ([1]; 25 nM PGD2Me or 100 nM ZK118182, 24 h): can induce apoptosis of LSCs

SMILES: C[C@H](CCC(=O)O)C[C@H](C)C[C@H](C)C(=O)/C=C(\O)[C@H](C)C[C@H](C)C/C=C/[C@@H](C)[C@@H](O)[C@@H](C)[C@@H](O)C[C@@H]1CC[C@@](C)([C@H]2CC[C@@](C)([C@@H](C)O)O2)O1 [ionomycin]
degranulation (release of histamine and hexoseaminidase) [5]: caused extensive production of histamine and hexoseaminidase

SMILES: CCCCC/C=C\C=C1\C(=O)CC[C@@H]1C/C=C\CCCC(=O)O [9,10-dihydro-15d-PGJ2]
apoptosis of Sca1+GFP+Kit+ BCR-ABL+LSC from spleen ([1]; 25-1000 nM, 36 h): had no effect; also recorded: ineffective even at high concentrations up to 1 μM
apoptosis of FV-LSCs [6]: fail to induce apoptosis; also recorded: no apoptosis
LSCs (Sca1+Kit+M34+) in the spleen ([7]; 0.05 mg/kg i.p. 7 d, flow cytometry day 14 post infection): ineffective
splenomegaly, comparator CyPGs ([7]; i.p. 7 days): did not have any effect on the amelioration of splenomegaly
p53 expression at transcript level ([8]; 10 or 25 nM, 12 h): ineffective
p53 mRNA ([9]; 25 nM ex vivo): ineffective
hematocrit, WBC counts and reticulocyte counts ([10]; FV-induced leukemia, FIG. 3C): had no effect on any parameter tested
LSCs (M34+Sca1+Kit+) in the spleen ([10]; flow cytometry after 1 week i.p. treatment): did not have any effect on their viability
splenomegaly ([10]; Δ^12-PGJ3 0.025 and 0.05 mg/kg, comparators 0.05 mg/kg, i.p. 1 week): nor alleviated splenomegaly

SMILES: O=c1cc(-c2cccc3c2Sc2ccccc2S3)oc(N2CCOCC2)c1 [MTPO, 2-Morpholin-4-yl-6-thianthren-1-yl-pyran-4-one]
block of Δ^12-PGJ3-induced apoptosis by ATM inhibitor ([1]; pretreatment, then 25 nM Δ^12-PGJ3): blocked the effect of Δ^12-PGJ3 on apoptosis
block of Δ^12-PGJ3-dependent p53 expression by ATM inhibitors ([8]; preincubation, then Δ^12-PGJ3): blocked the CyPG-dependent expression of p53
block of Δ^12-PGJ3-induced p53 expression by ATM inhibitor ([9]; pretreatment): blocked
viability of MSCV-HSC control cells [3]: not affected

Reference: patent publication US9623031B2, “Compositions, methods and kits for treating cancer” (priority 2011, dated 2017)
